Converted amounts (≈) assume the structure as drawn.
Assays:
KB [1] = experiment: Cytotoxicity against human KB cells assessed as inhibition of cell growth incubated for 72 hrs by neutral red dye based colorimetric assay; format: functional
Planktothrix perornata = experiment: Algicidal activity against Planktothrix perornata; format: functional, organism-based
[2] = tested on: Selenastrum capricornutum; experiment: Algicidal activity against Selenastrum capricornutum; format: functional, organism-based
Acetylcholinesterase [3] = molecular target: Acetylcholinesterase (Homo sapiens, UniProt P22303); experiment: Inhibition of recombinant human AChE assessed as hydrolysis of acetylthiocholine by Ellman's method
Sequence of Acetylcholinesterase (Homo sapiens, UniProt P22303) (P22303 whole entry): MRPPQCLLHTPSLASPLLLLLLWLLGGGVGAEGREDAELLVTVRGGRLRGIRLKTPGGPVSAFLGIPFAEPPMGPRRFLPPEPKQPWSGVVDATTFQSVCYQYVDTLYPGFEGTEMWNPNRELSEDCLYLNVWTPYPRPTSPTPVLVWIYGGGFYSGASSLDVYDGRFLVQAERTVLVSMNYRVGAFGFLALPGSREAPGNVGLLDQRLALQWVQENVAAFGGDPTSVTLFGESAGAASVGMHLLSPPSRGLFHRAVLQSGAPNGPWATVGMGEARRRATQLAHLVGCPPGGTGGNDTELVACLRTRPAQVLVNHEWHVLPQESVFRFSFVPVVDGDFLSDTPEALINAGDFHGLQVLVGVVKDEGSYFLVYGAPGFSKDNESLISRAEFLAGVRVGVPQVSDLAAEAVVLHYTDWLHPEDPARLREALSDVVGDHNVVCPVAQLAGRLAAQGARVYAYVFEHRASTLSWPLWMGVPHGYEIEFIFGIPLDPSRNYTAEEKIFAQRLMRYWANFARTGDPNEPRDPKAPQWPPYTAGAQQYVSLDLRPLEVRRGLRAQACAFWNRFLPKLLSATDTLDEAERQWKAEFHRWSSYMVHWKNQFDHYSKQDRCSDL

[4] = tested on: Human immunodeficiency virus 1; experiment: Antiviral activity against HIV-1 3B in human H9 cells incubated for 4 days by ELISA; format: functional, organism-based; conditions: Human immunodeficiency virus 1, 3B, H9, 96 h
[5] = Therapeutic index, ratio of IC50 for human H9 cells to EC50 for HIV-1 3B in human H9 cells; format: toxicity, cell-based; conditions: read-out: Ratio IC50/EC50
[6] = Inhibition of ECE (unknown origin); parameters: species or system Homo sapiens
LNCaP = experiment: Cytotoxicity against human LNCaP cells; format: functional; conditions: read-out: ED50 (the source's name)
Col2 = experiment: Cytotoxicity against human Col2 cells; format: functional; conditions: read-out: ED50 (the source's name)
[7] = Cytotoxicity against human Lu1 cells; format: functional; conditions: read-out: ED50 (the source's name)
KB [8] = experiment: Cytotoxicity against human KB cells; format: functional; conditions: read-out: ED50 (the source's name)
Rattus norvegicus = experiment: Antiinflammatory activity in rat assessed as inhibition of the carrageenan-induced right hind paw edema at 0.1 mmol/kg; format: functional; parameters: scale not given: the % may be the effect or the level left
Cannabinoid receptor 2 = Cannabinoid receptor 2 (Homo sapiens, UniProt P34972); experiment: Binding affinity to CB2 (unknown origin)
Sequence of Cannabinoid receptor 2 (P34972 whole entry): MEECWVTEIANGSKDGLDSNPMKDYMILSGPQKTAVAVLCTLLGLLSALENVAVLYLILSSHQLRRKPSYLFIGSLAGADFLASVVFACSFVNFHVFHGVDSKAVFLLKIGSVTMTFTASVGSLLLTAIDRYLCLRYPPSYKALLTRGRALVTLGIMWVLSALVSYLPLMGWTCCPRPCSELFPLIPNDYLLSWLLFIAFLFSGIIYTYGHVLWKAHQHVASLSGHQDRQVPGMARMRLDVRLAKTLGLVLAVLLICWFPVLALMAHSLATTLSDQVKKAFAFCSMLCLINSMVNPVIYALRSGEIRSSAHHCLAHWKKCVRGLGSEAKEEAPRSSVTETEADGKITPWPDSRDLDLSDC

[9] = Selectivity ratio of Ki for bovine 5-HT1B to rat 5-HT1B
[10] = Binding affinity to bovine 5-HT1B; parameters: species or system Bos taurus
[11] = molecular target: 5-hydroxytryptamine receptor 1B (Rattus norvegicus, UniProt P28564); experiment: Binding affinity to rat 5-HT1B
Sequence of 5-hydroxytryptamine receptor 1B (P28564 whole entry): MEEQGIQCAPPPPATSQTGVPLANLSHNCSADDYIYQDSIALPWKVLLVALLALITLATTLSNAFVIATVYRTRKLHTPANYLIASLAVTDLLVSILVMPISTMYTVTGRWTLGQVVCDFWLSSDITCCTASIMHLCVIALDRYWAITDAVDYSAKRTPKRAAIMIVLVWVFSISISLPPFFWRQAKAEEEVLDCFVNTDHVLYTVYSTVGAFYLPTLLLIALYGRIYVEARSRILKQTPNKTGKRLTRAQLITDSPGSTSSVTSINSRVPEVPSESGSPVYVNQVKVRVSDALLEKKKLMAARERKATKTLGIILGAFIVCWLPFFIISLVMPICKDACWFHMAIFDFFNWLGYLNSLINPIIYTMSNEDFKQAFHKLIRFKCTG

Acetylcholinesterase [12] = molecular target: T1, Acetylcholinesterase (Electrophorus electricus, UniProt O42275); experiment: Inhibition of electric eel AChE (type VI-S) using acetylthiocholine iodide as substrate preincubated for 15 mins followed by substrate addition by Ellman's method
T1 sequence (O42275 whole entry): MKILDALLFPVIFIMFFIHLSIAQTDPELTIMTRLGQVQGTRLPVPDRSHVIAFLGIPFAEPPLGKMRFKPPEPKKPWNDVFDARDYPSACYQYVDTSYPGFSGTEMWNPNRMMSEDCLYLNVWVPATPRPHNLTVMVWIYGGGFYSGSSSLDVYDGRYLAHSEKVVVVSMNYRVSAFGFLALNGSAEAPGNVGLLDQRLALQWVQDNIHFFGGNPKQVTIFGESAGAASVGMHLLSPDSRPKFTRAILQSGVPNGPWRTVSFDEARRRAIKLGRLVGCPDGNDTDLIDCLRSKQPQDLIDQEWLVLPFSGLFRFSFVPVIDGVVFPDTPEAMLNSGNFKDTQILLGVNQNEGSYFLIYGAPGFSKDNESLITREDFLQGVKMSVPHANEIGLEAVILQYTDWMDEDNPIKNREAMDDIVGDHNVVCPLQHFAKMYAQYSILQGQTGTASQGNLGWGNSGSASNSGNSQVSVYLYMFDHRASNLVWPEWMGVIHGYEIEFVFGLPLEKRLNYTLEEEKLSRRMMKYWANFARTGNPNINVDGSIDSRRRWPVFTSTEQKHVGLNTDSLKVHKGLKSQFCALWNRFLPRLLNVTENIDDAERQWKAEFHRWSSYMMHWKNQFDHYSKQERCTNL

Acetylcholinesterase [13] = molecular target: T1, Acetylcholinesterase; experiment: Competitive inhibition of electric eel acetyl cholinesterase measured for 3 mins by Ellman's method
[14] = molecular target: Chymotrypsinogen A (Bos taurus) (UniProt P00766); experiment: Inactivation of bovine alpha-chymotrypsin assessed as Ki/KI ratio
Plasmodium falciparum [15] = experiment: Antimalarial activity against chloroquine-susceptible Plasmodium falciparum 3D7; format: functional, organism-based
Plasmodium falciparum [16] = experiment: Antimalarial activity against chloroquine-resistant Plasmodium falciparum Dd2; format: functional, organism-based
Leishmania major = experiment: Antileishmanial activity against Leishmania major promastigotes assessed as inhibition of [3H]thymidine uptake preincubated for 2 hrs followed by addition of [3H]thymidine measured after 18 hrs by scintillation counting; format: functional, organism-based
[17] = molecular target: Chymotrypsinogen A (Bos taurus) (UniProt P00766); experiment: Inactivation of bovine alpha-chymotrypsin assessed as Ki/KI ratio at pH 7.5

Molecule `CC(C)CC(=O)c1c(O)cc(O)c2c(-c3ccccc3)cc(=O)oc12` [ISODISPAR B] has an IC50 (KB [1]) of 4 µg/mL (≈ 11.8 µM).

`CC(C)CC(=O)N(C)CCc1ccc2c(c1)C=CC(C)(C)O2` gave an Activity (Planktothrix perornata) of 10 µM, an IC50 (Planktothrix perornata; Planktothrix perornata) of 2300 nM and an Activity [2] of 100 µM. For the same molecule, the IC50 ([2]; Selenastrum capricornutum) was 12.6 µM.

Molecule `C=C(C)C(O)Cc1c(O)c(C(=O)C(C)C)c(O)c2c(-c3ccccc3)cc(=O)oc12` (stereo unspecified) has an IC50 (KB [1]) of 4 µg/mL (≈ 9.79 µM).

In the case of `COc1cc2cc(-c3ccc(CN(C)Cc4ccccc4)cc3)c(=O)oc2cc1OC`, the Ki (Acetylcholinesterase [3]) is reported as 44.5 nM.

`CC(C)=CCC/C(C)=C/CC[C@@]1(C)C=Cc2c(cc(C)c(C(=O)O)c2O)O1` [DAURICHROMENIC ACID] gave an EC50 [4] of 5.67 µg/mL (≈ 15.3 µM) and a selectivity ratio [5] of 3.71.

`CC1(C)C=Cc2c(ccc3c2O[C@H](O)[C@H]2c4ccc(O)cc4O[C@@H]32)O1` gave an IC50 [6] of 9 µM.

With `CC(C)=CCc1c(O)c(C(=O)CC(C)CO)c2oc(=O)cc(-c3ccccc3)c2c1O` (stereo unspecified) the EC50 (LNCaP) was 11.1 µg/mL (≈ 26.3 µM), the EC50 (Col2) was 11.1 µg/mL (≈ 26.3 µM) and the EC50 [7] was 11.1 µg/mL (≈ 26.3 µM). For the same molecule, the EC50 (KB [8]) was 11.1 µg/mL (≈ 26.3 µM).

Molecule `COc1ccc2c(c1)c(CC(=O)O)c(C)n2C(=O)c1ccc(Cl)cc1` [INDOMETHACIN] has an Activity (Rattus norvegicus) of 47%.

Work on `CCCCCCC(C)(C)c1cc(O)c2c(c1)oc(=O)c1ccc(C)cc12` yielded a Ki (Cannabinoid receptor 2) of 3.1 nM.

For `C1=C(CN2CCOCC2)COc2c1cccc2OCC1COCCN1` (stereo unspecified), the Ratio Ki [9] was 13, the Ki [10] was 630 nM and the Ki [11] was 47 nM.

`CC(C)=CCCC1(C)C=Cc2c(cc(O)c3c(=O)c4cccc(O)c4oc23)O1` (stereo unspecified) gave an IC50 (Acetylcholinesterase [12]) of 8.47 µM, a Ki (Acetylcholinesterase [12]) of 3.43 µM and a Ki (Acetylcholinesterase [13]) of 1900 nM.

Work on `CCCCCCC(C)(C)c1cc(O)c2c(c1)oc(=O)c1ccc(OC)cc12` yielded a Ki (Cannabinoid receptor 2) of 6.7 nM.

Molecule `C=C(C)C(O)Cc1c(O)c(C(=O)C(C)CC)c(O)c2c(-c3ccccc3)cc(=O)oc12` (stereo unspecified) has an IC50 (KB [1]) of 4 µg/mL (≈ 9.47 µM).

Molecule `CCC(C)c1cc(=O)oc2c(C(=O)CC(C)CO)c(O)c(CC=C(C)C)c(O)c12` (stereo unspecified) has an EC50 (LNCaP) of 11.1 µg/mL (≈ 27.6 µM), an EC50 (Col2) of 11.1 µg/mL (≈ 27.6 µM) and an EC50 [7] of 11.1 µg/mL (≈ 27.6 µM). For the same molecule, the EC50 (KB [8]) was 11.1 µg/mL (≈ 27.6 µM).

`COc1cc2cc(-c3ccc(CN(CCO)Cc4ccccc4)cc3)c(=O)oc2cc1OC` gave a Ki (Acetylcholinesterase [3]) of 10.5 nM.

Molecule `C=C(C)C(O)Cc1c(O)c(C(=O)C(C)CC)c(O)c2c(CCC)cc(=O)oc12` (stereo unspecified) has an IC50 (KB [1]) of 4 µg/mL (≈ 10.3 µM).

`CCOC(=O)C1(CC)Oc2ccc3c(C)cc(=O)oc3c2O1` (stereo unspecified) gave an Activity (Rattus norvegicus) of 55%.

In the case of `O=C(Oc1cccc(Cl)n1)c1cc2cc(CCl)ccc2oc1=O`, the Ratio [14] is reported as 1.1 10^5/M/s.

`CCN(Cc1ccccc1)Cc1ccc(-c2cc3cc(OC)c(OC)cc3oc2=O)cc1` gave a Ki (Acetylcholinesterase [3]) of 10.5 nM.

For `COc1cc2cc(-c3ccc(C[N+](C)(C)Cc4ccccc4)cc3)c(=O)oc2cc1OC`, the Ki (Acetylcholinesterase [3]) was 10.5 nM.

In the case of `Cc1cccc2oc(=O)c3c(c12)O[C@H](C)[C@@]3(C)CC(=O)C1OC1(C)C` (stereo partly specified), the IC50 (Plasmodium falciparum [15]) is reported as over 50 µM and the IC50 (Plasmodium falciparum [16]) is reported as over 50 µM.

`Cc1cccc2oc(=O)c3c(c12)O[C@@H](C)[C@@]3(C)CC(=O)C1OC1(C)C` (stereo partly specified) showed an IC50 (Plasmodium falciparum [15]) of over 50 µM, an IC50 (Plasmodium falciparum [16]) of over 50 µM and an IC50 (Leishmania major) of 13.4 µM.

`Cc1cc(=O)oc2c3c(ccc12)OC(C)(c1ccccc1)O3` (stereo unspecified) gave an Activity (Rattus norvegicus) of 55%.

With `O=C(Oc1cccc(Cl)c1)c1cc2cc(CCl)ccc2oc1=O` the Ratio [17] was 7.6 10^5/M/s.
